{"source": "patent US9278874B2", "about": "“Prevention of starch degradation in pulp, paper or board making processes using zinc ions and an oxidizing biocide” (KEMIRA OYJ, priority 2011, dated 2016)", "format_in_all_cases": "cell-based", "key": {"[1]": {"system": "starch degrading bacteria", "assay": "Prevention of starch degradation in head box stock using glutaraldehyde and zinc; remaining starch by iodine staining", "details": "for Prevention of starch degradation (in words): 10 mg/l zinc or 5-30 mg/l glutaraldehyde alone; for Starch concentration 4 h: contact time 4 h; for Starch concentration 24 h: contact time 24 h", "procedure": "(§1) Prevention of starch degradation was studied using a non-oxidizing biocide (glutaraldehyde) and zinc. Head box stock from packaging board mill, stored at +4° C. after collecting, was amended with 0.8 g/l cooked starch and incubated overnight at 45° C. with 150 rpm shaking to induce the growth of starch degrading bacteria. The stock was divided into 30 ml portions and appropriate amounts of zinc (Zn^2+ from zinc chloride) and glutaraldehyde were added together with a new starch addition (400 mg/l). After 4 h and 24 h incubation (+45° C., 150 rpm) the remaining starch was quantified using iodine staining (Lugol-solution) at 590 nm. An external standard curve was used to convert absorbance values into starch amounts."}, "[2]": {"system": "starch degrading bacteria", "assay": "Prevention of starch degradation in head box stock using performic acid (PFA) and zinc; remaining starch by iodine staining", "details": "for Prevention of starch degradation (in words): 10 mg/l zinc or 20-120 mg/l PFA alone; for Starch concentration 4 h: contact time 4 h; for Starch concentration 24 h: contact time 24 h", "procedure": "as §1, with “an oxidizing” for “a non-oxidizing”, “(performic acid, PFA)” for “(glutaraldehyde)”, “PFA” for “glutaraldehyde”"}, "[3]": {"system": "starch degrading bacteria", "assay": "Prevention of starch degradation in head box stock using chlorine dioxide (ClO2) and zinc; remaining starch by iodine staining", "details": "for Prevention of starch degradation (in words): 10 mg/l zinc or 5-20 mg/l ClO2 alone; for Starch concentration 4 h: contact time 4 h; for Starch concentration 24 h: contact time 24 h", "procedure": "as §1, with “an oxidizing” for “a non-oxidizing”, “(chlorine dioxide, ClO2)” for “(glutaraldehyde)”, “ClO2” for “glutaraldehyde”"}, "[4]": {"system": "starch degrading bacteria", "assay": "Prevention of starch degradation in head box stock using monochloramine (MCA) and zinc; remaining starch by iodine staining", "details": "for Prevention of starch degradation (in words): 10 mg/l zinc or MCA alone; for Starch concentration 4 h: contact time 4 h; for Starch concentration 24 h: contact time 24 h", "procedure": "as §1, with “an oxidizing” for “a non-oxidizing”, “(monochloramine, MCA)” for “(glutaraldehyde)”, “MCA” for “glutaraldehyde”"}, "[5]": {"details": "Zn 10 mg/l (mg Zn2+ per l), 400 mg/l starch added"}, "[6]": {"details": "PFA 11 mg/l (active ingredient)"}, "[7]": {"details": "PFA 16 mg/l (active ingredient)"}}}
{"smiles": "O=CCCCC=O", "note": "[GL, glutaraldehyde]", "values": [{"measurement": "Prevention of starch degradation (in words)", "setting": "[1]; 4 h", "result": "prevented some of the starch degradation"}, {"measurement": "Prevention of starch degradation (in words)", "setting": "[1]; 24 h", "result": "did not have marked effect"}, {"measurement": "Starch concentration 4 h", "setting": "[1]; GL 5 mg/l (active substance)", "result": 85, "unit": "mg/L"}, {"measurement": "Starch concentration 24 h", "setting": "[1]; GL 5 mg/l (active substance)", "result": 3, "unit": "mg/L"}, {"measurement": "Starch concentration 4 h", "setting": "[1]; GL 10 mg/l (active substance)", "result": 103, "unit": "mg/L"}, {"measurement": "Starch concentration 24 h", "setting": "[1]; GL 10 mg/l (active substance)", "result": 5, "unit": "mg/L"}, {"measurement": "Starch concentration 4 h", "setting": "[1]; GL 20 mg/l (active substance)", "result": 96, "unit": "mg/L"}, {"measurement": "Starch concentration 24 h", "setting": "[1]; GL 20 mg/l (active substance)", "result": 4, "unit": "mg/L"}, {"measurement": "Starch concentration 4 h", "setting": "[1]; GL 30 mg/l (active substance)", "result": 93, "unit": "mg/L"}, {"measurement": "Starch concentration 24 h", "setting": "[1]; GL 30 mg/l (active substance)", "result": 6, "unit": "mg/L"}]}
{"smiles": "[Cl-].[Cl-].[Zn+2]", "note": "[Zn, zinc chloride]", "values": [{"measurement": "Prevention of starch degradation (in words)", "setting": "[2]; 4 h", "result": "prevented most of the starch degradation"}, {"measurement": "Prevention of starch degradation (in words)", "setting": "[2]; 24 h", "result": "did not have marked effect"}, {"measurement": "Starch concentration 4 h", "setting": "[2]; Zn 10 mg/l (mg Zn2+ per l)", "result": 181, "unit": "mg/L"}, {"measurement": "Starch concentration 24 h", "setting": "[2]; Zn 10 mg/l (mg Zn2+ per l)", "result": 38, "unit": "mg/L"}, {"measurement": "Prevention of starch degradation (in words)", "setting": "[3]; 4 h", "result": "prevented most of the starch degradation"}, {"measurement": "Prevention of starch degradation (in words)", "setting": "[3]; 24 h", "result": "did not have marked effect"}, {"measurement": "Starch concentration 4 h", "setting": "[3]; Zn 10 mg/l (mg Zn2+ per l)", "result": 219, "unit": "mg/L"}, {"measurement": "Starch concentration 24 h", "setting": "[3]; Zn 10 mg/l (mg Zn2+ per l)", "result": 28, "unit": "mg/L"}, {"measurement": "Prevention of starch degradation (in words)", "setting": "[1]; 4 h", "result": "prevented some of the starch degradation"}, {"measurement": "Prevention of starch degradation (in words)", "setting": "[1]; 24 h", "result": "did not have marked effect"}, {"measurement": "Starch concentration 4 h", "setting": "[1]; Zn 10 mg/l (mg Zn2+ per l)", "result": 193, "unit": "mg/L"}, {"measurement": "Starch concentration 24 h", "setting": "[1]; Zn 10 mg/l (mg Zn2+ per l)", "result": 21, "unit": "mg/L"}, {"measurement": "Prevention of starch degradation (in words)", "setting": "[4]; 4 h", "result": "prevented most of the starch degradation"}, {"measurement": "Prevention of starch degradation (in words)", "setting": "[4]; 24 h", "result": "did not have any effect"}, {"measurement": "Starch concentration 4 h", "setting": "[4]; [5]", "result": 177, "unit": "mg/L"}, {"measurement": "Starch concentration 24 h", "setting": "[4]; [5]", "result": 8, "unit": "mg/L"}]}
{"smiles": "O=COO", "note": "[PFA, performic acid]", "values": [{"measurement": "Prevention of starch degradation (in words)", "setting": "[2]; 4 h", "result": "prevented most of the starch degradation"}, {"measurement": "Prevention of starch degradation (in words)", "setting": "[2]; 24 h", "result": "did not have marked effect"}, {"measurement": "Starch concentration 4 h", "setting": "[2]; PFA 3 mg/l (active ingredient)", "result": 114, "unit": "mg/L"}, {"measurement": "Starch concentration 24 h", "setting": "[2]; PFA 3 mg/l (active ingredient)", "result": 3, "unit": "mg/L"}, {"measurement": "Starch concentration 4 h", "setting": "[2]; PFA 5 mg/l (active ingredient)", "result": 157, "unit": "mg/L"}, {"measurement": "Starch concentration 24 h", "setting": "[2]; PFA 5 mg/l (active ingredient)", "result": 3, "unit": "mg/L"}, {"measurement": "Starch concentration 4 h", "setting": "[2]; [6]", "result": 208, "unit": "mg/L"}, {"measurement": "Starch concentration 24 h", "setting": "[2]; [6]", "result": 5, "unit": "mg/L"}, {"measurement": "Starch concentration 4 h", "setting": "[2]; [7]", "result": 215, "unit": "mg/L"}, {"measurement": "Starch concentration 24 h", "setting": "[2]; [7]", "result": 11, "unit": "mg/L"}]}
{"smiles": "[O][Cl+][O-]", "note": "[ClO2, chlorine dioxide]", "values": [{"measurement": "Prevention of starch degradation (in words)", "setting": "[3]; 4 h", "result": "prevented most of the starch degradation"}, {"measurement": "Prevention of starch degradation (in words)", "setting": "[3]; 24 h", "result": "did not have marked effect"}, {"measurement": "Starch concentration 4 h", "setting": "[3]; ClO2 5 mg/l", "result": 128, "unit": "mg/L"}, {"measurement": "Starch concentration 24 h", "setting": "[3]; ClO2 5 mg/l", "result": 5, "unit": "mg/L"}, {"measurement": "Starch concentration 4 h", "setting": "[3]; ClO2 9 mg/l", "result": 153, "unit": "mg/L"}, {"measurement": "Starch concentration 24 h", "setting": "[3]; ClO2 9 mg/l", "result": 12, "unit": "mg/L"}, {"measurement": "Starch concentration 4 h", "setting": "[3]; ClO2 14 mg/l", "result": 197, "unit": "mg/L"}, {"measurement": "Starch concentration 24 h", "setting": "[3]; ClO2 14 mg/l", "result": 13, "unit": "mg/L"}, {"measurement": "Starch concentration 4 h", "setting": "[3]; ClO2 20 mg/l", "result": 227, "unit": "mg/L"}, {"measurement": "Starch concentration 24 h", "setting": "[3]; ClO2 20 mg/l", "result": 19, "unit": "mg/L"}]}
{"smiles": "NCl", "note": "[MCA, monochloramine]", "values": [{"measurement": "Prevention of starch degradation (in words)", "setting": "[4]; 4 h", "result": "prevented most of the starch degradation"}, {"measurement": "Prevention of starch degradation (in words)", "setting": "[4]; 24 h", "result": "did not have any effect"}, {"measurement": "Starch concentration 4 h", "setting": "[4]; MCA 10 mg/l (active chlorine)", "result": 158, "unit": "mg/L"}, {"measurement": "Starch concentration 24 h", "setting": "[4]; MCA 10 mg/l (active chlorine)", "result": 5, "unit": "mg/L"}, {"measurement": "Starch concentration 4 h", "setting": "[4]; MCA 20 mg/l (active chlorine)", "result": 189, "unit": "mg/L"}, {"measurement": "Starch concentration 24 h", "setting": "[4]; MCA 20 mg/l (active chlorine)", "result": 41, "unit": "mg/L"}]}
